ChEMBL document CHEMBL1201862, “PubChem BioAssay data set” (2004)
Active and inactive are the calls of the source.

Key:
[1] = molecular target: T1, High affinity choline transporter 1 (Homo sapiens, UniProt Q9GZV3); assay: CHT inhibitors, dose response, cell-based, 5-point CRC, membrane potential dye (AID 504840); assay type: functional
T1 sequence (Q9GZV3 whole entry): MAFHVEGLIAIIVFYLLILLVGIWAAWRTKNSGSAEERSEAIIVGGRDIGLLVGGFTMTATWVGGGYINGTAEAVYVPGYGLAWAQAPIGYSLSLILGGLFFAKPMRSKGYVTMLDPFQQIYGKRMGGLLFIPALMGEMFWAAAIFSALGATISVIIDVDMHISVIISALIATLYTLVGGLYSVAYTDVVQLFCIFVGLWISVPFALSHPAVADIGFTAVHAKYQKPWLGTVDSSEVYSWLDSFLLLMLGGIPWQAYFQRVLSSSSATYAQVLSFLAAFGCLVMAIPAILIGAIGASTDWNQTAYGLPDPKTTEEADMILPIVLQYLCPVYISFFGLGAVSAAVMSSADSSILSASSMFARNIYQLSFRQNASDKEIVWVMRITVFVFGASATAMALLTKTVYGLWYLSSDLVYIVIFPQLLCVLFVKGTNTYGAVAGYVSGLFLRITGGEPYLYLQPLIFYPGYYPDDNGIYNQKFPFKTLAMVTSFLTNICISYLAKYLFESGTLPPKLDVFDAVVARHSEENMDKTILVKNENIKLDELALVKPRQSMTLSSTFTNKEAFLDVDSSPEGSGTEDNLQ

[2] = molecular target: T1, High affinity choline transporter 1; assay: CHT inhibitors, dose response, cell-based, 10-point CRC, membrane potential dye (AID 588401); assay type: functional;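 note: membrane potential dye fluorescence of choline-evoked depolarization via CHT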
[3] = system: Streptococcus sp. 'group A'; assay: growth inhibition of control SK(-) GAS strain, dose response, counter-screen for streptokinase expression inhibitor project, luminescence, kanamycin, BacTiterGlo, confirmation (AID 1900); assay type: functional, organism-based
[4] = molecular target: T2, Streptokinase A (Streptococcus pyogenes serotype M1, UniProt P10520); assay: S. pyogenes streptokinase expression inhibitors, potency, dose response, plasminogen activation absorbance, OD405 (AID 1914); assay type: functional, Streptococcus pyogenes M1 GAS;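 note: secreted streptokinase activity via plasminogen activation per viability signal from cell pellet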
T2 sequence (P10520 whole entry): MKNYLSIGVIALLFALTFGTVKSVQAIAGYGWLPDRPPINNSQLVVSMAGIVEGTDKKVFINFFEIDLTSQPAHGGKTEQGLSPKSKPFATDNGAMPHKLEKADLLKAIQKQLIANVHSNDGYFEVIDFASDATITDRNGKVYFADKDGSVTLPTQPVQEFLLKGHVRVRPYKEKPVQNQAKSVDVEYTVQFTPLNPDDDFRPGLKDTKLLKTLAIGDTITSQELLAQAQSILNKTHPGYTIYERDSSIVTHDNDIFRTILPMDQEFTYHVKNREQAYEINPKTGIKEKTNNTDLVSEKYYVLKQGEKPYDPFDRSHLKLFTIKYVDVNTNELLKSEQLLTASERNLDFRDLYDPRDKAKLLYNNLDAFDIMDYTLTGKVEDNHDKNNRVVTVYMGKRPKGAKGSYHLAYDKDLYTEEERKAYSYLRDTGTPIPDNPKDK

[5] = microbe, parasite or virus in culture; assay type: functional; conditions: Mycobacterium tuberculosis
[6] = Luminescence Cell-Based Dose Confirmation HTS to Identify Inhibitors of Polyadenylation.; assay type: functional
[7] = system: Streptococcus; assay: Group A Streptococcus viability loss, dose response, counter-screen for streptokinase expression inhibitor project, luminescence, BacTiterGlo (AID 1915); assay type: functional, organism-based;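 note: potency for reduction of bacterial viability or growth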
[8] = molecular target: Multidrug resistance protein CDR1 (Candida albicans, UniProt P43071); assay: CaCDR1 efflux pump inhibitors in yeast, dose response, S. cerevisiae AD1-8u, singleplex, Cherry Pick1 hits (AID 588606); assay type: functional
[9] = molecular target: Multidrug resistance protein CDR2 (Candida albicans (strain SC5314 / ATCC MYA-2876) (Yeast), UniProt P78595); assay: CaCDR2 efflux pump inhibitors in yeast, dose response, S. cerevisiae AD1-8u, singleplex, Cherry Pick1 hits (AID 588604); assay type: functional
[10] = molecular target: Dual specificity protein kinase CLK2 (Homo sapiens, UniProt P49760); assay type: functional
[11] = molecular target: Dual specificity mitogen-activated protein kinase kinase 1 (Homo sapiens, UniProt Q02750); assay: Navigating the Kinome. Panel member name: MAP2K1; assay type: functional
[12] = molecular target: Tyrosine-protein kinase JAK2 (Homo sapiens, UniProt O60674); assay type: functional;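 note: JAK2 tested as one member of a kinase panel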
[13] = molecular target: Serine/threonine-protein kinase TBK1 (Homo sapiens, UniProt Q9UHD2); assay: Navigating the Kinome. Panel member name: TBK1; assay type: functional
[14] = molecular target: 5'-AMP-activated protein kinase catalytic subunit alpha-1 (Homo sapiens, UniProt Q13131); assay type: functional
5'-AMP-activated protein kinase catalytic subunit alpha-1, sequence (Q13131 whole entry): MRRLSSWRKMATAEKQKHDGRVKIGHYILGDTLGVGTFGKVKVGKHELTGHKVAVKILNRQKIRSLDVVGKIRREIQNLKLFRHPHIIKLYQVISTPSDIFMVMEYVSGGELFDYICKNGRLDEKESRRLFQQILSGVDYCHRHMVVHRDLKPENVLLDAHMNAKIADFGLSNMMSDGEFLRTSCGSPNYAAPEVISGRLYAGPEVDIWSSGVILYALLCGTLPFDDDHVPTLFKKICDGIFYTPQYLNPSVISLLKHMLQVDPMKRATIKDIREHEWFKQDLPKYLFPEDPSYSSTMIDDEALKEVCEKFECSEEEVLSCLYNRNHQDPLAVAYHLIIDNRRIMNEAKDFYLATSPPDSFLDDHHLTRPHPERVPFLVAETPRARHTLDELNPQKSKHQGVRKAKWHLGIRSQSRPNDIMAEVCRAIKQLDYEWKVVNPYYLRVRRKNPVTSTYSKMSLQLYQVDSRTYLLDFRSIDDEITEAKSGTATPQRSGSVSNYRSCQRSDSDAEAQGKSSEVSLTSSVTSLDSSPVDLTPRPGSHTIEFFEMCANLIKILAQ

[15] = molecular target: ALK tyrosine kinase receptor (Homo sapiens, UniProt Q9UM73); assay type: functional;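 note: ALK tested as one member of a kinase panel screen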
[16] = molecular target: Tyrosine-protein kinase receptor TYRO3 (Homo sapiens, UniProt Q06418); assay type: functional;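 note: TYRO3 value obtained as one member of a kinome-wide profiling panel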
[17] = molecular target: Tyrosine-protein kinase Lck (Homo sapiens, UniProt P06239); assay type: functional;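 note: lck was assayed as one member of a kinase panel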
Tyrosine-protein kinase Lck, sequence (P06239 whole entry): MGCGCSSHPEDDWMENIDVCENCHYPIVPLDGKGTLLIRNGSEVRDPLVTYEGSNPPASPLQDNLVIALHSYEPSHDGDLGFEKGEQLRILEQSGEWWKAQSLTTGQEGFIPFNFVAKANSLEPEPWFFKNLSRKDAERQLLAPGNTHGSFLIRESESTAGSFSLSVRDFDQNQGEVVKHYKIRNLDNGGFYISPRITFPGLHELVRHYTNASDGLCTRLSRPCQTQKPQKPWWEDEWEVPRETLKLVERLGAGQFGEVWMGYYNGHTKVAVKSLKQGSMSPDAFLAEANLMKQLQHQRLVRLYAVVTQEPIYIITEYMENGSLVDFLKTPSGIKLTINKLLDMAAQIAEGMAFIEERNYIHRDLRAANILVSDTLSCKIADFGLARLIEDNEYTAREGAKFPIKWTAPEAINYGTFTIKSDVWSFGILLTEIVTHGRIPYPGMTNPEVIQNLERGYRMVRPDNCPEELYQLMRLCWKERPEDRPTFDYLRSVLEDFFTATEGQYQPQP

[18] = molecular target: Death-associated protein kinase 3 (Homo sapiens, UniProt O43293); assay type: functional;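 note: measured as one member of a kinome-wide profiling panel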
[19] = molecular target: Mitogen-activated protein kinase 8 (Homo sapiens, UniProt P45983); assay type: functional;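 note: value comes from one member of a kinome-wide kinase profiling panel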
[20] = molecular target: Serine/threonine-protein kinase pim-1 (Homo sapiens, UniProt P11309); assay type: functional
Serine/threonine-protein kinase pim-1, sequence (P11309 whole entry): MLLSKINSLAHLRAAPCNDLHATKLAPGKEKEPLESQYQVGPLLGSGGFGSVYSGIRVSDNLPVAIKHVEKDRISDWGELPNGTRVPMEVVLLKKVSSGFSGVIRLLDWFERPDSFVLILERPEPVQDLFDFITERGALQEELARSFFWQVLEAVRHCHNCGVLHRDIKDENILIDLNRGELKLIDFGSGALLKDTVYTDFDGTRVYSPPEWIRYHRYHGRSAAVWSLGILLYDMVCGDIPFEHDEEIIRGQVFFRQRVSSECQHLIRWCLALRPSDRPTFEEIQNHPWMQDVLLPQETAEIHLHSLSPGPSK

[21] = molecular target: Aurora kinase A (Homo sapiens, UniProt O14965); assay type: functional;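 note: value from the Navigating the Kinome kinase panel profiling, panel entry STK6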
[22] = molecular target: Tyrosine-protein kinase BTK (Homo sapiens, UniProt Q06187); assay type: functional
[23] = molecular target: Serine/threonine-protein kinase PAK 4 (Homo sapiens, UniProt O96013); assay type: functional;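 note: value obtained within a kinome profiling panel in which PAK4 was one of the panel members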
[24] = molecular target: Fibroblast growth factor receptor 1 (Homo sapiens, UniProt P11362); assay type: functional
[25] = molecular target: Tyrosine-protein kinase JAK3 (Homo sapiens, UniProt P52333); assay type: functional
[26] = molecular target: Mitogen-activated protein kinase 9 (Homo sapiens, UniProt P45984); assay type: functional;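 note: value from a kinome panel profiling assay, MAPK9 panel entry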
[27] = molecular target: Serine/threonine-protein kinase N2 (Homo sapiens, UniProt Q16513); assay type: functional
[28] = molecular target: Serine/threonine-protein kinase TAO1 (Homo sapiens, UniProt Q7L7X3); assay type: functional
[29] = molecular target: MAP/microtubule affinity-regulating kinase 3 (Homo sapiens, UniProt P27448); assay type: functional;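 note: MARK3 affinity measured as one member of a kinome panel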
[30] = molecular target: High affinity nerve growth factor receptor (Homo sapiens, UniProt P04629); assay type: functional;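 note: NTRK1 tested as one member of a kinome-wide profiling panel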
[31] = molecular target: Glycogen synthase kinase-3 alpha (Homo sapiens, UniProt P49840); assay type: functional;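 note: GSK3A result taken from a broad kinome-wide kinase panel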
[32] = molecular target: Mitogen-activated protein kinase kinase kinase kinase 2 (Homo sapiens, UniProt Q12851); assay type: functional;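 note: measured as one member of a kinome-wide kinase panel, with MAP4K2 as the panel entry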
[33] = molecular target: Receptor-type tyrosine-protein kinase FLT3 (Homo sapiens, UniProt P36888); assay type: functional;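 note: FLT3 was tested as one member of a kinome-wide kinase panel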
Receptor-type tyrosine-protein kinase FLT3, sequence (P36888 whole entry): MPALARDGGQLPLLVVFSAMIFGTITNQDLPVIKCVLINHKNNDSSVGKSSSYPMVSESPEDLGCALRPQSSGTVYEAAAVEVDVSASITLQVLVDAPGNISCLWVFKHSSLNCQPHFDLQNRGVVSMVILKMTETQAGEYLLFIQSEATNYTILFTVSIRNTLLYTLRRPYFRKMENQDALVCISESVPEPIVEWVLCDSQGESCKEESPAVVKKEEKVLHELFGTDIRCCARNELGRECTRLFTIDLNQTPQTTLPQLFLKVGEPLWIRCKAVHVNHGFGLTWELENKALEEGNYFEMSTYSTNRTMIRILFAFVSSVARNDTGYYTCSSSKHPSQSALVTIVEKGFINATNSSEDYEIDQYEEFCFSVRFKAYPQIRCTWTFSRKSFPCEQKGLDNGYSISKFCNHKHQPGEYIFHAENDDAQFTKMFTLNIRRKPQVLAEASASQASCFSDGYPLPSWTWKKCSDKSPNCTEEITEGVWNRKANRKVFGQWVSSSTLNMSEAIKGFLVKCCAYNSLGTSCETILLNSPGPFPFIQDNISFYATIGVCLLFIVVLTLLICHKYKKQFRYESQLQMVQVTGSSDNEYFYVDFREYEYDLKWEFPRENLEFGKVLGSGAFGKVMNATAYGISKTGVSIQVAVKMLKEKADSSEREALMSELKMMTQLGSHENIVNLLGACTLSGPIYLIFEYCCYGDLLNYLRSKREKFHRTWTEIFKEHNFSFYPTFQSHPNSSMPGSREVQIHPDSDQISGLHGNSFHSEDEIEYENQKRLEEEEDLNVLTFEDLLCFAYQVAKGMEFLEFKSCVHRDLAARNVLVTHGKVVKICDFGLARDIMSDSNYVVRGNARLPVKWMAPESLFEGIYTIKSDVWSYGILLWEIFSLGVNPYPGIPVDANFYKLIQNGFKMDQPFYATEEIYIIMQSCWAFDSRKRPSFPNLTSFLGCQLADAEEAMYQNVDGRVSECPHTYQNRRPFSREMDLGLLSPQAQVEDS

[34] = molecular target: Tyrosine-protein kinase ABL1 (Homo sapiens, UniProt P00519); assay type: functional
[35] = molecular target: Vascular endothelial growth factor receptor 2 (Homo sapiens, UniProt P35968); assay type: functional
[36] = molecular target: G protein-coupled receptor kinase 5 (Homo sapiens, UniProt P34947); assay: Navigating the Kinome. Panel member name: GPRK5; assay type: functional
G protein-coupled receptor kinase 5, sequence (P34947 whole entry): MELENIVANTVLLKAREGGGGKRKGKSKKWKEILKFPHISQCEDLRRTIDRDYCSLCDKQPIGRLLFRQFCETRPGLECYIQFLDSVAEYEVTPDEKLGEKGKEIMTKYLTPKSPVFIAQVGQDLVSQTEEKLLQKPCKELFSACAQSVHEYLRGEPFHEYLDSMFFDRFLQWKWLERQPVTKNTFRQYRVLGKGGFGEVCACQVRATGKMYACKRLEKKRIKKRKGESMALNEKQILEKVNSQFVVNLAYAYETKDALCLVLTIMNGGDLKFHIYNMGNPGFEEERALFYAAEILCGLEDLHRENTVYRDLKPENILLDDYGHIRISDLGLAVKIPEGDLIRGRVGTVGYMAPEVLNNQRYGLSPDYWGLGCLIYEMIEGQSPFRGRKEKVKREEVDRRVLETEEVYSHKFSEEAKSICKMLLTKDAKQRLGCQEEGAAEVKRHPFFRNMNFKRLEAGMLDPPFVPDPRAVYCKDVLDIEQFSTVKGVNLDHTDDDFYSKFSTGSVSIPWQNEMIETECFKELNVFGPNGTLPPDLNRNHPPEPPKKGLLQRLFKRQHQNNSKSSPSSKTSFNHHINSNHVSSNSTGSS

[37] = molecular target: Insulin-like growth factor 1 receptor (Homo sapiens, UniProt P08069); assay: Navigating the Kinome. Panel member name: IGF1R; assay type: functional
[38] = molecular target: cAMP-dependent protein kinase catalytic subunit PRKX (Homo sapiens, UniProt P51817); assay type: functional
cAMP-dependent protein kinase catalytic subunit PRKX, sequence (P51817 whole entry): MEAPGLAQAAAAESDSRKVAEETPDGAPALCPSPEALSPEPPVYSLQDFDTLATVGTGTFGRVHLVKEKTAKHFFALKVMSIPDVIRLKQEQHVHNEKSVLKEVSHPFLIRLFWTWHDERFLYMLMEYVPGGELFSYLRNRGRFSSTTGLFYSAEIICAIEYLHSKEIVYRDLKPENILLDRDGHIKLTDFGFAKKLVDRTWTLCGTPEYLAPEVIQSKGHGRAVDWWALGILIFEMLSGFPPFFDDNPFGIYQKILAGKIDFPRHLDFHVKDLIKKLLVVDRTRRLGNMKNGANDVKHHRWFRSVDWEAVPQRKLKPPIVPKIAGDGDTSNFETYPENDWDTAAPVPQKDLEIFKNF

[39] = molecular target: Platelet-derived growth factor receptor alpha (Homo sapiens, UniProt P16234); assay: Navigating the Kinome. Panel member name: PDGFRA; assay type: functional
[40] = molecular target: Leucine-rich repeat serine/threonine-protein kinase 2 (Homo sapiens, UniProt Q5S007); assay type: functional;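 note: value from a broad kinome-wide panel profiling study in which LRRK2 was one of the kinases tested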
[41] = molecular target: Mitogen-activated protein kinase kinase kinase kinase 5 (Homo sapiens, UniProt Q9Y4K4); assay type: functional;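 note: measured as one member of a kinome-spanning kinase panel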
Mitogen-activated protein kinase kinase kinase kinase 5, sequence (Q9Y4K4 whole entry): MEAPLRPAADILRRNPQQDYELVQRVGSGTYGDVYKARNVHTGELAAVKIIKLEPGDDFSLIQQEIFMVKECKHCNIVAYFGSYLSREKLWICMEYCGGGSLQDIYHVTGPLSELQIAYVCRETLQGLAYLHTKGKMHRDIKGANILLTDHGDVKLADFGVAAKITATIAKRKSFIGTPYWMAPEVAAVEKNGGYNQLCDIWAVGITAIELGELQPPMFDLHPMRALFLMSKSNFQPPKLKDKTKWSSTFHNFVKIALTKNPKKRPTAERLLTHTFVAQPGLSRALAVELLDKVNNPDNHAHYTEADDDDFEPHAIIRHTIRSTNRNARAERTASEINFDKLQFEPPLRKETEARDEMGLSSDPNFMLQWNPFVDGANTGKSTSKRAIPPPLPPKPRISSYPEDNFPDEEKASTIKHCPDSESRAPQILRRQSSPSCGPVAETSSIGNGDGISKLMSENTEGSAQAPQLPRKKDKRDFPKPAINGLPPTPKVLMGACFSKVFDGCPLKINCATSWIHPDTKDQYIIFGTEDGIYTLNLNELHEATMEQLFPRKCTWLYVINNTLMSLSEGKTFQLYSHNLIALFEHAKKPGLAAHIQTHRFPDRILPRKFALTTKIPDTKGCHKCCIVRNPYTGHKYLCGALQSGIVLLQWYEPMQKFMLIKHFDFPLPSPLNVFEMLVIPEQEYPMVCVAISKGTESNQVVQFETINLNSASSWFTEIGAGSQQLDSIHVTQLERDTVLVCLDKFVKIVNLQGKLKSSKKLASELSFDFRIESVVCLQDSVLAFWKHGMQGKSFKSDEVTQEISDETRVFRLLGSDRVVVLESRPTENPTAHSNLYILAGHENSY

[42] = molecular target: Tyrosine-protein kinase Fyn (Homo sapiens, UniProt P06241); assay type: functional
[43] = molecular target: Cyclin-dependent kinase 8 (Homo sapiens, UniProt P49336); assay: Navigating the Kinome. Panel member name: CDK8; assay type: functional
[44] = molecular target: Vascular endothelial growth factor receptor 1 (Homo sapiens, UniProt P17948); assay type: functional;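 note: measured within a kinome-wide profiling panel, FLT1 as the panel member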
[45] = molecular target: Glycogen synthase kinase-3 beta (Homo sapiens, UniProt P49841); assay type: functional;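 note: value comes from a broad kinome profiling panel, with GSK3B as the panel member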
Glycogen synthase kinase-3 beta, sequence (P49841 whole entry): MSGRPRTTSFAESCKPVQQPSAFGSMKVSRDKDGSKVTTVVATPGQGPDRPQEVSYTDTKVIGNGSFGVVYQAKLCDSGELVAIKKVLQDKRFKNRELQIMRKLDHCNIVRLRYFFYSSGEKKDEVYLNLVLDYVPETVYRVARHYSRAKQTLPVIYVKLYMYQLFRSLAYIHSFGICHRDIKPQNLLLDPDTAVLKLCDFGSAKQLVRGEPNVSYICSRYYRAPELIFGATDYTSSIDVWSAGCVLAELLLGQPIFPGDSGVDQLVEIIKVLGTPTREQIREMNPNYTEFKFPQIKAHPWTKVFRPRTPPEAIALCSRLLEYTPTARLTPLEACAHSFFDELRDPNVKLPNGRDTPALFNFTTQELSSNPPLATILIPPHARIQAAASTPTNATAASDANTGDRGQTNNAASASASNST

[46] = molecular target: Cyclin-dependent kinase 9 (Homo sapiens, UniProt P50750); assay type: functional;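 note: value from the CDK9 entry of a kinome-spanning kinase panel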
Cyclin-dependent kinase 9, sequence (P50750 whole entry): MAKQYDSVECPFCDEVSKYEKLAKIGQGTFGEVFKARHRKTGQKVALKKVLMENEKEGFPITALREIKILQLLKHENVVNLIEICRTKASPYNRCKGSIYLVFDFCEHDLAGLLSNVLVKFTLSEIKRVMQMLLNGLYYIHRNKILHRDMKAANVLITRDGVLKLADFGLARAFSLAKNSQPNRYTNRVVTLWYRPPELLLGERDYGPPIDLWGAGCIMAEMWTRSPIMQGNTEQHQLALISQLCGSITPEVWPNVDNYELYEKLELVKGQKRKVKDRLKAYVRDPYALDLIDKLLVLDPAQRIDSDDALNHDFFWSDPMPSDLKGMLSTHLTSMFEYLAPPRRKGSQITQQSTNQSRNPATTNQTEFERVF

[47] = molecular target: cAMP-dependent protein kinase catalytic subunit alpha (Homo sapiens, UniProt P17612); assay type: functional
[48] = molecular target: Dual specificity protein kinase CLK4 (Homo sapiens, UniProt Q9HAZ1); assay type: functional
[49] = molecular target: Mitogen-activated protein kinase kinase kinase kinase 4 (Homo sapiens, UniProt O95819); assay type: functional
[50] = molecular target: Macrophage-stimulating protein receptor (Homo sapiens, UniProt Q04912); assay: Navigating the Kinome. Panel member name: MST1R; assay type: functional
[51] = molecular target: Macrophage colony-stimulating factor 1 receptor (Homo sapiens, UniProt P07333); assay type: functional;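 note: value comes from the Navigating the Kinome screening panel, CSF1R member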
[52] = molecular target: Dual specificity mitogen-activated protein kinase kinase 2 (Homo sapiens, UniProt P36507); assay: Navigating the Kinome. Panel member name: MAP2K2; assay type: functional
[53] = molecular target: Dual specificity tyrosine-phosphorylation-regulated kinase 1A (Homo sapiens, UniProt Q13627); assay type: functional;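 note: measured against DYRK1A as one member of a broad kinome profiling panel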
[54] = molecular target: Inhibitor of nuclear factor kappa-B kinase subunit epsilon (Homo sapiens, UniProt Q14164); assay: Navigating the Kinome. Panel member name: IKBKE; assay type: functional
[55] = molecular target: Calcium/calmodulin-dependent protein kinase type II subunit alpha (Homo sapiens, UniProt Q9UQM7); assay: Navigating the Kinome. Panel member name: CAMK2A; assay type: functional
[56] = molecular target: Leukocyte tyrosine kinase receptor (Homo sapiens, UniProt P29376); assay: Navigating the Kinome. Panel member name: LTK; assay type: functional
[57] = molecular target: Mitogen-activated protein kinase 14 (Homo sapiens, UniProt Q16539); assay type: functional;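 note: part of a kinome-wide panel, MAPK14 entry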

Structure (SMILES): Cc1nn2c(N3CCN(CCO)CC3)c3c(nc2c1-c1ccccc1)CCCC3
- IC50 [1]: 6.95 µM (active)
- IC50 [2]: 4.74 µM (active)

Structure (SMILES): CCc1ccc(NC2=NC(=O)/C(=C/c3cc(OC)c(O)c(OC)c3)S2)cc1
- EC50 [3]: 2.67 µM (active)
- EC50 [4]: > 150 µM (not active)
- CC50 [5]: > 40 µM (active)
- EC50 [6]: 10.5 µM (active)
- EC50 [7]: 28.2 µM (active)
- EC50 [8]: 6.05 µM (active)
- EC50 [9]: 19.2 µM (active)

Structure (SMILES): Cc1cc(O)nc2[nH]nc(-c3cccc(-c4ccc(C#N)cc4)c3)c12
- Ki [10]: > 3.98 µM (inactive)
- Ki [11]: > 3.16 µM (inactive)
- Ki [12]: > 2.51 µM (inactive)
- Ki [13]: > 3.16 µM (inactive)
- Ki [14]: > 3.16 µM (inactive)
- Ki [15]: > 6.31 µM (inactive)
- Ki [16]: > 3.16 µM (inactive)
- Ki [17]: > 6.31 µM (inactive)
- Ki [18]: > 5.01 µM (inactive)
- Ki [19]: > 5.01 µM (inactive)
- Ki [20]: > 6.31 µM (inactive)
- Ki [21]: > 1.58 µM (inactive)
- Ki [22]: > 6.31 µM (inactive)
- Ki [23]: > 5.01 µM (inactive)
- Ki [24]: > 3.98 µM (inactive)
- Ki [25]: > 5.01 µM (inactive)
- Ki [26]: > 3.98 µM (inactive)
- Ki [27]: > 5.01 µM (inactive)
- Ki [28]: > 6.31 µM (inactive)
- Ki [29]: 1 nM (active)
- Ki [30]: > 3.16 µM (inactive)
- Ki [31]: 3.98 µM (active)
- Ki [32]: > 2.51 µM (inactive)
- Ki [33]: > 3.16 µM (inactive)
- Ki [34]: > 3.98 µM (inactive)
- Ki [35]: > 2.51 µM (inactive)
- Ki [36]: > 3.98 µM (inactive)
- Ki [37]: > 2.51 µM (inactive)
- Ki [38]: > 3.16 µM (inactive)
- Ki [39]: > 2.51 µM (inactive)
- Ki [40]: > 2.51 µM (inactive)
- Ki [41]: > 3.98 µM (inactive)
- Ki [42]: > 6.31 µM (inactive)
- Ki [43]: > 3.98 µM (inactive)
- Ki [44]: > 3.98 µM (inactive)
- Ki [45]: > 3.98 µM (inactive)
- Ki [46]: > 1.58 µM (inactive)
- Ki [47]: > 1.26 µM (inactive)
- Ki [48]: > 2.51 µM (inactive)
- Ki [49]: > 5.01 µM (inactive)
- Ki [50]: > 3.98 µM (inactive)
- Ki [51]: > 2.51 µM (inactive)
- Ki [52]: > 3.98 µM (inactive)
- Ki [53]: > 2 µM (inactive)
- Ki [54]: > 3.16 µM (inactive)
- Ki [55]: > 7.94 µM (inactive)
- Ki [56]: > 2.51 µM (inactive)
- Ki [57]: > 3.98 µM (inactive)
